These results are taken from patent publication US20260285875A1, “INHIBITORS OF PARG” (858 Therapeutics, Inc., priority 2023, published 2026).

This test addresses T1, cellular PARG (Homo sapiens, UniProt Q86W56).
T1 construct: endogenous in cells; host or cells: HeLa
The experiment in a line: Nuclear PAR accumulation assay (immunofluorescence high-content imaging, MMS-treated HeLa cells). It counts as cell-based. Conditions: 1 hour compound then MMS 50 μg/mL for an additional hour. The method in brief:
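HeLa cells pretreated with compound for 1 h at 37° C, then given 50 μg/mL MMS for another hour. After methanol fixation, PAR was immunostained with DAPI nuclear counterstain; per-nucleus intensity and percent PAR-positive cells were imaged at 20× (≥1,000 cells/well). IC50 from four-parameter logistic fit.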

T1 sequence (Q86W56 whole entry): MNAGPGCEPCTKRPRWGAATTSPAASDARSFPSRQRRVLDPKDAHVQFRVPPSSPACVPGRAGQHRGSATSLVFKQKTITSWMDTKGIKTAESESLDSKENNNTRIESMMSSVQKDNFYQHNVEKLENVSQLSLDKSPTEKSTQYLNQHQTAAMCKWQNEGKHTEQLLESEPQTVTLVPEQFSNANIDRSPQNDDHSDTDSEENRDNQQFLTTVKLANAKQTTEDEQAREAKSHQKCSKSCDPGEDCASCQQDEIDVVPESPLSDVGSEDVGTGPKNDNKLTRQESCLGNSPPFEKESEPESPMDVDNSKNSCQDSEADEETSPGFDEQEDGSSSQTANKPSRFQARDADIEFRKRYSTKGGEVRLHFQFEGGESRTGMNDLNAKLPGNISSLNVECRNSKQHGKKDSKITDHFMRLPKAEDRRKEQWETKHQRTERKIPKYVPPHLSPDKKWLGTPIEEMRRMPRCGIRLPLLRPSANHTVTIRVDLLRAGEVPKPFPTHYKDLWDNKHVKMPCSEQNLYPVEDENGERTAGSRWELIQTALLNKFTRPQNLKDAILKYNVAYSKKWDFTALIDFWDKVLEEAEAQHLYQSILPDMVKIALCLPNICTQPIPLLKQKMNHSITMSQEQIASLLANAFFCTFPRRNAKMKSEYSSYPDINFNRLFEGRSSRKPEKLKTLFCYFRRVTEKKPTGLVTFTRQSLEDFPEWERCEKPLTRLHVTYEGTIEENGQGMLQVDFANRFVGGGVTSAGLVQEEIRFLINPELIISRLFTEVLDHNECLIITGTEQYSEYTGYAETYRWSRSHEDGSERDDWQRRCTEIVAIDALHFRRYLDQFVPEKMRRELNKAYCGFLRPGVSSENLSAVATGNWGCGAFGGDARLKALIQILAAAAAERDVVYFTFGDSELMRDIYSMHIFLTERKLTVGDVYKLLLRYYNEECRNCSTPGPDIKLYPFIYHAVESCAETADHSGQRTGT

By IC50 is commonly meant the concentration at which inhibition is half-maximal. On to `CN1C(=O)c2cc(S(=O)(=O)NC3(C)CC3)ccc2N2C1=NC[C@H]2C#Cc1cnc2ncccn12` [Example 171, (R)-1-(imidazo[1,2-a]pyrimidin-3-ylethynyl)-4-methyl-N-(1-methylcyclopropyl)-5-oxo-1,2,4,5-tetrahydroimidazo[1,2-a]quinazoline-7-sulfonamide], for which the 50% inhibitory concentration (IC50) lay within 100 to 1000 nM.
The value for `CN1C(=O)c2cc(S(=O)(=O)NC3(C)CC3)ccc2N2C1=NCC2C#Cc1ccc2nnn(C)c2c1` (stereo not shown) [Example 172, 4-methyl-1-((1-methyl-1H-benzo[d][1,2,3]triazol-6-yl)ethynyl)-N-(1-methylcyclopropyl)-5-oxo-1,2,4,5-tetrahydroimidazo[1,2-a]quinazoline-7-sulfonamide] was less than 100 nM; that for `C#C[C@@H]1[C@H](C)N=C2N(Cc3cnn(C)c3)C(=O)c3cc(S(=O)(=O)NC4(C)CC4)ccc3N21` [Example 173, (1R,2S)-1-ethynyl-2-methyl-4-((1-methyl-1H-pyrazol-4-yl)methyl)-N-(1-methylcyclopropyl)-5-oxo-1,2,4,5-tetrahydroimidazo[1,2-a]quinazoline-7-sulfonamide] was less than 100 nM; that for `CN1C(=O)c2cc(S(=O)(=O)NC3(C)CC3)ccc2N2C1=NC[C@H]2C#Cc1c2ccccc2nn1C` [Example 174, (R)-4-methyl-1-((2-methyl-2H-indazol-3-yl)ethynyl)-N-(1-methylcyclopropyl)-5-oxo-1,2,4,5-tetrahydroimidazo[1,2-a]quinazoline-7-sulfonamide] was less than 100 nM.
`CN1C(=O)c2cc(S(=O)(=O)NC3(C)CC3)ccc2N2C1=NCC2C#Cc1cnn(C)c(=O)c1` (stereo not shown) [Example 175, 4-methyl-1-((1-methyl-6-oxo-1,6-dihydropyridazin-4-yl)ethynyl)-N-(1-methylcyclopropyl)-5-oxo-1,2,4,5-tetrahydroimidazo[1,2-a]quinazoline-7-sulfonamide] registered an IC50 of less than 100 nM.
`CN1C(=O)c2cc(S(=O)(=O)NC3(C)CC3)ccc2N2C1=NCC2C#Cc1ccc2nccn2n1` (stereo not shown) [Example 176, 1-(imidazo[1,2-b]pyridazin-6-ylethynyl)-4-methyl-N-(1-methylcyclopropyl)-5-oxo-1,2,4,5-tetrahydroimidazo[1,2-a]quinazoline-7-sulfonamide] came in with a concentration for half-maximal inhibition (IC50) of 100 to 1000 nM.
In turn, `C[C@@H]1CN=C2N(Cc3cnn4c3CNCC4)C(=O)c3cc(S(=O)(=O)NC4(C)CC4)ccc3N21` [Example 177, (R)-1-methyl-N-(1-methylcyclopropyl)-5-oxo-4-((4,5,6,7-tetrahydropyrazolo[1,5-a]pyrazin-3-yl)methyl)-1,2,4,5-tetrahydroimidazo[1,2-a]quinazoline-7-sulfonamide] registered a concentration for half-maximal inhibition (IC50) of 100 to 1000 nM.
`CN1C(=O)c2cc(S(=O)(=O)NC3(C)CC3)ccc2N2C1=NCC2C#Cc1cnn2c1OCC1(COC1)C2` (stereo not shown) [Example 178, 1-((5′H,7′H-spiro[oxetane-3,6′-pyrazolo[5,1-b][1,3]oxazin]-3′-yl)ethynyl)-4-methyl-N-(1-methylcyclopropyl)-5-oxo-1,2,4,5-tetrahydroimidazo[1,2-a]quinazoline-7-sulfonamide] returned an IC50 of 100 to 1000 nM.
Compound `CN1C(=O)c2cc(S(=O)(=O)NC3(C)CC3)ccc2N2C1=NCC2C#Cc1cnsc1` (stereo not shown) [Example 179, 1-(isothiazol-4-ylethynyl)-4-methyl-N-(1-methylcyclopropyl)-5-oxo-1,2,4,5-tetrahydroimidazo[1,2-a]quinazoline-7-sulfonamide] came in with an IC50 of less than 100 nM.
The value for `CN1C(=O)c2cc(S(=O)(=O)NC3(C)CC3)ccc2N2C1=NC[C@H]2C#Cc1cnc2ccc(C#N)nn12` [Example 180, (R)-1-((6-cyanoimidazo[1,2-b]pyridazin-3-yl)ethynyl)-4-methyl-N-(1-methylcyclopropyl)-5-oxo-1,2,4,5-tetrahydroimidazo[1,2-a]quinazoline-7-sulfonamide] was less than 100 nM.
